The text below walks through data of ChEMBL document CHEMBL3769332, “Affinity-Based Fluorescence Polarization Assay for High-Throughput Screening of Prolyl Hydroxylase 2 Inhibitors” (ACS Med Chem Lett, 2015).

The test has as its target Egl nine homolog 1 (Homo sapiens, UniProt Q9GZT9).

Egl nine homolog 1, sequence (Q9GZT9 whole entry): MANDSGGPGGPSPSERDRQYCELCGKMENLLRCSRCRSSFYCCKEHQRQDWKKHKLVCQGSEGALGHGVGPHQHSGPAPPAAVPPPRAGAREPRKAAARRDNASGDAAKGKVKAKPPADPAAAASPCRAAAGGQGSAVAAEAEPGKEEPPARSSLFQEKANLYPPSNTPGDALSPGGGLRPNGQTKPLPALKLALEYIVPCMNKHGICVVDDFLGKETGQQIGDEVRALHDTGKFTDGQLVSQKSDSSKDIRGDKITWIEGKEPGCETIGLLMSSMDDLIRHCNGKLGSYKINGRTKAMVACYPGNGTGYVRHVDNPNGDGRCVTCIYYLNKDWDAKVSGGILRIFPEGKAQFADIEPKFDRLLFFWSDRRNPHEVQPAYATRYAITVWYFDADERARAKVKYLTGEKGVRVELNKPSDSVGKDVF

As usually defined, the IC50 is the concentration that inhibits the measured activity by half. `Cc1ccc(-c2cnc(C(=O)NCC(=O)O)c(O)c2)cc1` showed an IC50 of 890 nM.
`O=c1c(-n2ccnn2)c[nH]n1-c1cc(N2CCOCC2)ncn1` [MOLIDUSTAT] registered an IC50 of 876 nM.
